Like-named read-outs stand apart in the source and are kept apart here.
Tests used:
[1] = first dissolution test in DMSO or water; conditions: for Total volume of DMSO for dissolving the p-TSA derivatives / Total volume of water for dissolving the p-TSA derivatives: first dissolution test, amount for a 3M solution in 0.5 mL, up to 15000 μL; for solubility: thermodynamic from solid
Description: Each of the powder of p-TSA derivatives was duplicated, placed in each 15 mL centrifuge tube, followed by adding 200 μL DMSO or 200 μL water and shaking for 10 to 20 seconds for dissolution observation. If the powder was not dissolved, additional DMSO or water was added, and then the mixture was shaken. The tube was left to stand for 10 minutes for observation if the powder was still not dissolved after adding 1 mL DMSO or 1 mL water. If the powder was still not dissolved after adding 5 mL DMSO or 5 mL water, additional 1 mL DMSO or 1 mL water was added, and then the mixture was shaken for 30 seconds. If the powder was still not dissolved after adding 10 mL DMSO or 10 mL water, the tube was left to stand for 12 to 16 hours and observed on the next day. DMSO or water was added into the tube having the undissolved p-TSA derivatives up to 15 mL, followed by shaking for 30 minutes for observation.

[2] = test system: human non-small-cell lung cancer cell lines H460; assay: SRB growth inhibition of lung cancer cells; assay type: cell-based
Description: (§1) After letting to stand for 10 minutes at room temperature, the supernatant of each well was removed, and each well was washed with 200 μL H2O once. […] Each of the plates was then placed in the laminar flow cabinet for 1 hour for air dry. 50 μL 0.4% sulforhodamine B (SRB) dye was added into each well of the 96-well plate. […] Each of the plates was then placed in the laminar flow cabinet for 40 minutes to 1 hour for air dry. 1×Tris-Base solution with pH 7.0 to 7.4 was added to each well of the 96-well plate to dissolve the protein complex formed in the bottom of each well, followed by tapping the 96-well plate, allowing the complex in each well to be dissolved uniformly. Absorption of each well under 515 nm was read. […] Each of the experimental group was performed in triplet.

[3] = test system: human liver cancer cell lines Hep3B; assay: SRB growth inhibition of liver cancer cells; assay type: cell-based
Description: as §1

[4] = Homo sapiens, NCI-H460, 48 h, derivative dissolved in DMSO, 48 hours, SRB, read-out: IC50 of H460 in DMSO
[5] = Homo sapiens, Hep3B, 48 h, derivative dissolved in DMSO, 48 hours, SRB, read-out: IC50 of Hep3B in DMSO
[6] = Homo sapiens, NCI-H460, 48 h, derivative dissolved in water, 48 hours, SRB, read-out: IC50 of H460 in water
[7] = Homo sapiens, Hep3B, 48 h, derivative dissolved in water, 48 hours, SRB, read-out: IC50 of Hep3B in water
[8] = derivative dissolved in DMSO, 48 hours, SRB, read-out: IC50 of H460 in DMSO
[9] = derivative dissolved in DMSO, 48 hours, SRB, read-out: IC50 of Hep3B in DMSO

SMILES | Total volume of DMSO for dissolving the p-TSA derivatives ([1]; DMSO) | Total volume of water for dissolving the p-TSA derivatives ([1]; water) | IC50 [2, 4] | IC50 [3, 5] | further results
Cc1ccc(S(=O)(=O)N[C@@H](C)C(=O)O)cc1 [PTSA045] | 2000 µL | insoluble in 15000 μL | > 3000 µM | > 3000 µM | –
Cc1ccc(S(=O)(=O)N2CCC[C@H]2CO)cc1 [PTSA033] | 500 µL | insoluble in 15000 μL | 1420 µM | 1760 µM | –
NS(=O)(=O)c1ccc(C(=O)O)cc1 [PTSA004] | 960 (with pipetting) μL | insoluble in 15000 μL | 9670 µM | > 7000 µM | –
Cc1ccc(S(=O)(=O)N2CCC(N)CC2)cc1.Cl [PTSA053] | 15000 µL | 2500 µL | – | – | IC50 [2, 6]: 691 µM; IC50 [3, 7]: 770 µM
Cc1ccc(S(=O)(=O)N2CC[C@@H](O)C2)cc1 [PTSA035] | 490 µL | insoluble in 15000 μL | 2830 µM | 2280 µM | –
Cc1ccc(S(=O)(=O)N2CC(C(=O)NN)C2)cc1 [PTSA071] | 1500 µL | insoluble in 15000 μL | 1040 µM | 1020 µM | –
Cc1ccc(S(=O)(=O)N2CC3(COC3)C2)cc1 [PTSA041] | 4000 µL | insoluble in 15000 μL | > 2000 µM | > 2000 µM | –
Cc1ccc(S(=O)(=O)N2CCC(O)C2)cc1 (centres unmarked) [PTSA036] | 530 µL | insoluble in 15000 μL | 2540 µM | 3400 µM | –
Cc1ccc(S(=O)(=O)NCC2(CO)COC2)cc1 [PTSA039] | 500 µL | insoluble in 15000 μL | 4160 µM | 3740 µM | –
Cc1ccc(S(=O)(=O)N2CC(CO)C2)cc1 [PTSA069] | 880 µL | insoluble in 15000 μL | 2580 µM | 3620 µM | –
Cc1ccc(S(=O)(=O)NCC(C)O)cc1 (centres unmarked) [PTSA024] | 515 µL | insoluble in 15000 μL | 3220 µM | 3830 µM | –
COC(=O)NS(=O)(=O)c1ccc(C)cc1 [PTSA012] | 680 µL | 500 µL | – | – | IC50 [2, 6]: > 5000 µM; IC50 [2, 8]: 6110 µM; IC50 [3, 9]: 7500 µM
Cc1ccc(S(=O)(=O)N2CCNCC2)cc1 [PTSA038] | 680 µL | insoluble in 15000 μL | 1620 µM | 1570 µM | –
Cc1ccc(S(=O)(=O)NC(CO)(CO)CO)cc1 [PTSA031] | 700 µL | 10000 µL | 3310 µM | 4210 µM | IC50 [2, 6]: > 1000 µM; IC50 [3, 7]: > 1000 µM
Cc1ccc(S(=O)(=O)N2CC(=NO)C2)cc1 [PTSA070] | 850 µL | insoluble in 15000 μL | – | – | –
Cc1ccc(S(=O)(=O)N2CCC(CN)CC2)cc1.Cl [PTSA055] | 2000 µL | 3000 µL | 617 µM | 596 µM | solubility ([1]; DMSO, organic solvent or mixture): 229 mg/mL; solubility ([1]; water): 152 mg/mL; IC50 [2, 6]: 651 µM; IC50 [3, 7]: 610 µM
Cc1ccc(S(=O)(=O)N2CC(C(=O)[O-])C2)cc1.[Na+] [PTSA061] | 2500 µL | 750 µL | – | – | IC50 ([2]; Homo sapiens, NCI-H460, 48 h, read-out: IC50 of H460 in DMSO): > 2250 µM; IC50 ([2]; Homo sapiens, NCI-H460, 48 h, read-out: IC50 of H460 in water): > 8800 µM; IC50 ([3]; Homo sapiens, Hep3B, 48 h, read-out: IC50 of Hep3B in DMSO): > 2250 µM; IC50 ([3]; Homo sapiens, Hep3B, 48 h, read-out: IC50 of Hep3B in water): > 8800 µM
Cc1ccc(S(=O)(=O)NCCN(C)C)cc1.Cl [PTSA051] | 1500 µL | 1000 µL | 1820 µM | 1410 µM | IC50 [2, 6]: 1750 µM; IC50 [3, 7]: 1440 µM
Cc1ccc(S(=O)(=O)NCCCO)cc1 [PTSA021] | 495 µL | insoluble in 15000 μL | 2450 µM | 2810 µM | –
Cc1ccc(S(=O)(=O)NCC2CCNCC2)cc1.Cl [PTSA054] | 740 µL | insoluble in 15000 μL | 1170 µM | 935 µM | –
CC(=O)NS(=O)(=O)c1ccc(C)cc1 [PTSA001] | 510 µL | insoluble in 15000 μL | – | – | IC50 [2, 8]: 7720 µM; IC50 [3, 9]: > 9000 µM
Cc1ccc(S(=O)(=O)NCC(=O)O)cc1 [PTSA044] | 600 µL | insoluble in 15000 μL | 7930 µM | 9110 µM | –
Cc1ccc(S(=O)(=O)NCC(O)CO)cc1 (centres unmarked) [PTSA028] | 620 µL | insoluble in 15000 μL | 5530 µM | 5360 µM | –
Cc1ccc(S(=O)(=O)N2CC(=O)C2)cc1 [PTSA066] | 3000 µL | insoluble in 15000 μL | 906 µM | 733 µM | –
Cc1ccc(S(=O)(=O)NCC(F)(F)F)cc1 [PTSA050] | 590 µL | insoluble in 15000 μL | – | – | –
